From US11602538B2, “Prophylaxis and treatment of cognitive dysfunction and decline” (The Florey Institute of Neuroscience and Mental Health, priority 2017, dated 2023)
“Also recorded” adds a separate entry of the source.

Legend:
Format in all cases: in vivo, mouse
[1] = test system: mice receiving a controlled cortical impact traumatic brain injury (TBI); test: Morris water maze after controlled cortical impact TBI
Experimental: Trehalose (Sigma) has a generous safety profile in rodents and humans has been posted as “Generally Regarded as Safe” (GRAS) for human consumption by the U.S. Federal Drug Administration (FDA) in October 2000, is used as a food additive, and is also an excipient in many pharmaceuticals, making trehalose a safe, natural and pharmaceutically accepted product. In this study, it was supplied as a 2% w/v in standard suspension vehicle (SSV) solution via oral gavage at a dose of 0.1 ml to 10 g body weight. SSV solution was purchased from Sigma and contains 0.9% sodium chloride (NaCl), 0.5% Sodium carboxymethylcellulose (Na-CMC), 0.5% Benzyl alcohol, 0.4%, Tween 80 (polyoxyethylenesorbitan monooleate).
(§1) Surgical procedures and controlled cortical impact (CCI) have been previously described (see Portbury et al., 2015, Metallomics. doi:10.1039/c5mt00234f). Briefly, 3 month-old male C57B16 mice were anesthetized via intraperitoneal injection of 100 mg/kg ketamine and 10 mg/kg xylazine. A 10 mm mid-line incision was made over the skull, and the skin and fascia were reflected to make a 4 mm craniotomy on the central aspect of the right parietal bone using a motorized drill. Upon animal positioning in a stereotaxic frame a CCI injury was subsequently delivered (3 m/s velocity with a 1.5 mm penetration depth).
(§2) Three groups of animals were subjected to TBI as separate experiments. The first group of animals were treated daily with 2% trehalose in SSV solution at 0.1 ml per 10 g body weight via oral gavage for a period of 31 days or SSV solution following the TBI. […] The second groups of animals underwent an identical dosing procedure but were treated with either SSV or maltose as a disaccharide control for trehalose. […] A further group of animals was pre-treated with trehalose prior to TBI. These pre-treated mice received a daily treatment of 2% trehalose in SSV solution at 0.1 ml per 10 g body weight via oral gavage for 7 days prior to TBI. Following TBI, these animals received SSV solution only for the remaining duration of the experiment.
(§3) The Morris Water Maze (MWM) was used to assess the effect of trehalose on spatial learning and memory function following TBI. The pre-training acclimation day of the water maze was performed on day 23 of dosing, followed by six days of place discrimination training of four 90 second trials per day, conducted on days 24-29 of dosing. The probe trial was performed 24 hours after training on dosing day 30 to assess retention of the task. Data was analysed using the Ethovision automated tracking system. Animals were culled on day 31. Both experimental groups adhered to the same time lines of behavioral assessment. The open field assessment was performed on day 19 of dosing and the Y-maze assessment was performed on day 21 of dosing.
(§4) For LA-ICPMS samples, statistical analysis was carried out in Prism 7 (Graph-Pad) software. Analysis was carried out with a two-tailed t test with the level of significance set at p=0.05. For multiple comparisons two-way ANOVA was used to identify significant differences between ipsilateral and contralateral ROI's. For western blot analysis, images were produced using Image Studio Lite (version 4.0.21, LI-COR Biosciences) and subsequent statistical analysis was carried out in Prism 7 (Graph-Pad). All behavioral analysis was performed using Prism 7 (Graph-Pad).

synaptophysin [2] = test: Synaptophysin expression in Tg2576 brain
Experimental: (§5) For the behaviorally assessed animals the cortex and hippocampus of both ipsilateral and contralateral hemispheres were homogenized in 15 volumes of ice-cold PBS containing Complete Protease Inhibitor Cocktail tablets (Roche Applied Science, Indianapolis, Ind., USA) and subsequently centrifuged (100,000×g) for 30 minutes at 4° C. Supernatant was removed to yield the soluble fraction (S1). Remaining pellet underwent further extraction via 30 minutes of vigorous agitation in above mentioned homogenization buffer containing 2% (vol/vol) Triton X100. Insoluble material was pelleted via centrifugation (20,000×g) for 20 minutes, and supernatant was retained as the membrane fraction (P1). Protein concentrations were determined using Pierce BCA protein assay (Pierce Biotechnology, Rockford, Ill., USA) to ensure equal loading of 10 μg protein samples on gel. Samples were prepared for PAGE by the addition of 4× protein sample loading buffer (LICOR, Lincoln, Nebr., USA) and 10× NuPAGE sample reducing agent (to a final 1× concentration). Samples were heated to 70° C. for 10 min, loaded onto Bolt 4-12% Bis-Tris Plus gels (Invitrogen-Life Technologies, Grand Island, N.Y., USA) along with Licor One-Color protein molecular weight markers (LICOR, Lincoln, Nebr., USA) and run at 125 V for 60 min in appropriately diluted Bolt MES SDS 20× running buffer (Invitrogen-Life Technologies, Grand Island, N.Y., USA). […] Blots were rinsed in TBST and incubated with appropriate secondary antibody (1 h, RT), followed by further rinsing and imaged using a LI-COR Odyssey Imaging system (LI-COR Biosciences, Lincoln Nebr., USA), and analysed with Image Studio Lite software (LI-COR Biosciences, Lincoln Nebr., USA). […]
Transgenic Tg2576 mice were treated daily with 2% trehalose (0.1 ml/10 g body weight) in SSV (Sigma)(n=15, average age 16.2±3 months of age) via oral gavage or SSV (saline vehicle suspension) (n=12, 16±3 months of age). […] Mice were culled on day 31, and DCX and synaptophysin expression were assessed.

Tg2576 transgenic mice = test: Morris water maze in Tg2576 Alzheimer's disease model
Experimental: Transgenic Tg2576 mice were treated daily with 2% trehalose (0.1 ml/10 g body weight) in SSV (Sigma)(n=15, average age 16.2±3 months of age) via oral gavage or SSV (saline vehicle suspension) (n=12, 16±3 months of age). Mice were dosed for a period of 31 days, with the Morris water maze commencing on day 23 of dosing. Mice were culled on day 31, and DCX and synaptophysin expression were assessed.

[3] = test system: mice receiving a controlled cortical impact traumatic brain injury (TBI); test: Volumetric analysis of cortical tissue loss after TBI; settings: treated after TBI; vs controls
Experimental: as §1, §2

[4] = test system: brain derived neurotrophic factor (BDNF); test: Western blot of brain tissue after TBI: BDNF
Experimental: as §2
as §5, with “concentration).” for “concentration). Samples were heated to 70° C. for 10 min, loaded onto Bolt 4-12% Bis-Tris Plus gels (Invitrogen-Life Technologies, Grand Island, N.Y., USA) along with Licor One-Color protein molecular weight markers (LICOR, Lincoln, Nebr., USA) and run at 125 V for 60 min in appropriately diluted Bolt MES SDS 20× running buffer (Invitrogen-Life Technologies, Grand Island, N.Y., USA).”

doublecortin (DCX) [5] = test: Doublecortin expression in Tg2576 brain; settings: Tg2576 hippocampus; vs SSV littermates
Experimental: as §5, with “concentration).” for “concentration). Samples were heated to 70° C. for 10 min, loaded onto Bolt 4-12% Bis-Tris Plus gels (Invitrogen-Life Technologies, Grand Island, N.Y., USA) along with Licor One-Color protein molecular weight markers (LICOR, Lincoln, Nebr., USA) and run at 125 V for 60 min in appropriately diluted Bolt MES SDS 20× running buffer (Invitrogen-Life Technologies, Grand Island, N.Y., USA).”

doublecortin (DCX) [6] = test: Western blot of brain tissue after TBI: doublecortin
Experimental: as §2
(§6) For the behaviorally assessed animals the cortex and hippocampus of both ipsilateral and contralateral hemispheres were homogenized in 15 volumes of ice-cold PBS containing Complete Protease Inhibitor Cocktail tablets (Roche Applied Science, Indianapolis, Ind., USA) and subsequently centrifuged (100,000×g) for 30 minutes at 4° C. Supernatant was removed to yield the soluble fraction (S1). Remaining pellet underwent further extraction via 30 minutes of vigorous agitation in above mentioned homogenization buffer containing 2% (vol/vol) Triton X100. Insoluble material was pelleted via centrifugation (20,000×g) for 20 minutes, and supernatant was retained as the membrane fraction (P1). Protein concentrations were determined using Pierce BCA protein assay (Pierce Biotechnology, Rockford, Ill., USA) to ensure equal loading of 10 μg protein samples on gel. Samples were prepared for PAGE by the addition of 4× protein sample loading buffer (LICOR, Lincoln, Nebr., USA) and 10× NuPAGE sample reducing agent (to a final 1× concentration). Samples were heated to 70° C. for 10 min, loaded onto Bolt 4-12% Bis-Tris Plus gels (Invitrogen-Life Technologies, Grand Island, N.Y., USA) along with Licor One-Color protein molecular weight markers (LICOR, Lincoln, Nebr., USA) and run at 125 V for 60 min in appropriately diluted Bolt MES SDS 20× running buffer (Invitrogen-Life Technologies, Grand Island, N.Y., USA). Gels were transferred to Immobilon—PF, PVDF membrane (Millipore) using the Invitrogen Bolt wet-gel Transfer Device (Invitrogen-Life Technologies, Grand Island, N.Y., USA) at 15 V for 60 min in appropriately diluted 20× Bolt transfer buffer (Invitrogen-Life Technologies, Grand Island, N.Y., USA). […] Blots were rinsed in TBST and incubated with appropriate secondary antibody (1 h, RT), followed by further rinsing and imaged using a LI-COR Odyssey Imaging system (LI-COR Biosciences, Lincoln Nebr., USA), and analysed with Image Studio Lite software (LI-COR Biosciences, Lincoln Nebr., USA). […]

Pro-BDNF = test: Western blot of brain tissue after TBI: Pro-BDNF
Experimental: as §2
as §5, with “concentration).” for “concentration). Samples were heated to 70° C. for 10 min, loaded onto Bolt 4-12% Bis-Tris Plus gels (Invitrogen-Life Technologies, Grand Island, N.Y., USA) along with Licor One-Color protein molecular weight markers (LICOR, Lincoln, Nebr., USA) and run at 125 V for 60 min in appropriately diluted Bolt MES SDS 20× running buffer (Invitrogen-Life Technologies, Grand Island, N.Y., USA).”

synaptophysin [7] = test: Western blot of brain tissue after TBI: synaptophysin
Experimental: as §2, §6

[8] = test system: mice receiving a controlled cortical impact traumatic brain injury (TBI); test: Y-maze assessment after TBI
Experimental: as §1, §2, §3, §4

LC3 = test: Autophagy by LC3 western blot after TBI; settings: between trehalose, SSV and maltose treated groups after TBI
Experimental: as §2
For the behaviorally assessed animals the cortex and hippocampus of both ipsilateral and contralateral hemispheres were homogenized in 15 volumes of ice-cold PBS containing Complete Protease Inhibitor Cocktail tablets (Roche Applied Science, Indianapolis, Ind., USA) and subsequently centrifuged (100,000×g) for 30 minutes at 4° C. Supernatant was removed to yield the soluble fraction (S1). […] Protein concentrations were determined using Pierce BCA protein assay (Pierce Biotechnology, Rockford, Ill., USA) to ensure equal loading of 10 μg protein samples on gel. […]

[9] = test system: mice receiving a controlled cortical impact traumatic brain injury (TBI); test: Open field assessment after TBI; settings: treated post-TBI, dosing day 19, vs SSV control
Experimental: as §1, §2, §3, §4

[10] = contralateral cortex, vs SSV and maltose
[11] = contralateral cortex, vs SSV and maltose, listed as Trehalose
[12] = contralateral hippocampus or ipsilateral cortex and hippocampus
[13] = pre-treated 7 days before TBI, vs SSV littermates
[14] = treated post-TBI, dosing day 21, vs SSV
[15] = treated post-TBI, dosing day 21, vs SSV, listed as Trehalose

## OC[C@H]1O[C@H](O[C@H]2O[C@H](CO)[C@@H](O)[C@H](O)[C@H]2O)[C@H](O)[C@@H](O)[C@@H]1O [trehalose]
[1]; pre-treated 7 days before TBI with 2% oral gavage, SSV only after TBI, vs SSV controls
  learning component, Morris water maze: outperformed SSV controls in the learning (FIG. 1a) component of the water maze trial, although not significantly
[1]; pre-treated 7 days before TBI with 2% oral gavage, SSV only after TBI, vs post-treated mice and SSV controls
  recall component, Morris water maze: significantly outperform trehalose post-treated mice and SSV controls
[1]; treated post-TBI daily by oral gavage, 2% in SSV, 0.1 ml per 10 g, vs SSV controls, training on dosing days 24-29
  escape latency / acquisition of the task (learning component), Morris water maze: overall significant performance improvement
[1]; treated post-TBI daily by oral gavage, 2% in SSV, vs SSV controls, dosing day 30
  probe day 24-hour task retention (recall component), Morris water maze: overall significant performance improvement; also recorded: significant improvement in memory
Synaptophysin [2]; Tg2576 cortex, trehalose vs SSV
  synaptophysin protein expression: no significant difference
Synaptophysin [2]; Tg2576 hippocampus, vs SSV littermates
  synaptophysin protein expression: increased
Synaptophysin [2]; Tg2576 hippocampus, vs SSV littermates, listed as Trehalose
  synaptophysin protein expression: significant increase
Tg2576 transgenic mice; 2% trehalose daily oral gavage for 31 days
  cognitive improvement in the Morris water maze: significant cognitive improvement
Tg2576 transgenic mice; 2% trehalose daily oral gavage for 31 days, vs Tg2576 SSV littermates
  escape latency, Morris water maze: significant decrease
Tg2576 transgenic mice; 2% trehalose daily oral gavage, vs SSV littermates
  time spent in the relevant quadrant, Morris water maze: significant (p<0.0003) increase
[3]
  cortical tissue loss: no difference
[4]; [10]
  BDNF protein: significant increase
[4]; [11]
  BDNF protein: significantly increased
[4]; [12]
  BDNF protein: not significantly elevated
Doublecortin (DCX) [5]
  DCX protein expression: increased; also recorded: significant (p<0.0401) increase
Doublecortin (DCX) [6]; contralateral cortex, vs SSV and maltose controls
  DCX protein: significant increase
Doublecortin (DCX) [6]; contralateral cortex, vs SSV and maltose controls, listed as Trehalose
  DCX protein: significantly increases
Doublecortin (DCX) [6]; contralateral hippocampus or ipsilateral cortex and hippocampus, vs control groups
  DCX protein: absence of elevated DCX
Doublecortin (DCX) [6]; ipsilateral cortex and hippocampus, vs SSV and maltose controls
  DCX expression: significantly decreased
Pro-BDNF; [10]
  pro-BDNF protein: significant increase
Pro-BDNF; [11]
  pro-BDNF protein: significantly increased
Pro-BDNF; [12]
  pro-BDNF protein: not significantly elevated
Synaptophysin [7]; contralateral cortex, 31 days post-TBI, vs SSV and maltose controls
  synaptophysin protein expression: significantly elevated expression
Synaptophysin [7]; contralateral cortex, 31 days post-TBI, vs SSV and maltose controls, listed as Trehalose
  synaptophysin protein expression: significantly increased
Synaptophysin [7]; contralateral hippocampus, ipsilateral cortex and hippocampus
  synaptophysin protein expression: no significant elevation
Synaptophysin [7]; ipsilateral hippocampus, vs control groups
  synaptophysin protein expression: non-significant elevation
[8]; [13]
  five-minute frequency, Y-maze: performed significantly better
  one-minute duration, Y-maze: performed significantly better
  one-minute frequency, Y-maze: performed significantly better
[8]; pre-treated 7 days before TBI, vs post-treatment and SSV mice
  five-minute duration, Y-maze: significantly outperformed both the trehalose post-treatment and SSV treated mice
[8]; [14]
  five-minute frequency of visits into the novel arm, Y-maze: significantly enhanced
  one-minute duration of time in the novel arm, Y-maze: significantly greater duration of time in the novel arm; also recorded: significant overall duration of time in the novel arm
  one-minute frequency of visits into the novel arm, Y-maze: significantly enhanced
[8]; [15]
  five-minute frequency of visits into the novel arm, Y-maze: significant overall frequency of visitation preference for the novel arm
  one-minute frequency of visits into the novel arm, Y-maze: significant overall frequency of visitation preference for the novel arm
LC3
  enhancement in autophagy (LC3): not detectable
[9]
  ambulatory time, open field: significant increase
  ambulatory velocity, open field: no significant difference
  total ambulatory distance, open field: significant increase
  vertical counts, open field: significant increase
[9]; listed as Trehalose
  ambulatory velocity, open field: without a significant increase
